These results are taken from US6225100A, “Arylsulfotransferase” (DCV, Inc., priority 1999, dated 2001).

Counter-ions that a name gives are not always drawn. Like-named read-outs stand apart in the source and are kept apart here. Peptide text beside a SMILES is read from it. Bounds are passed on as bounds.

Assay [1] has as its system AST from Clostridium innocuum strain 554WT. Put plainly: AST assay, sulfate acceptors (phenolic compounds, tyrosylpeptides) with p-nitrophenylsulfate as sulfate donor. The note with it: for Yield (%) of sulfated tyrosylpeptide: tyrosylpeptides as sulfate acceptors. The class given is biochemical.
Assay [2] deals with AST of Clostridium innocuum 554 ATCC 55803 (Strain 554WT). Put plainly: AST assay, sulfate donor substrate specificity with tyramine as sulfate acceptor. In kind it is biochemical. The note with it: for specific activity as donor substrate: normalized to p-acetylphenylsulfate as donor baseline at 100% activity; for Activity (%) as sulfate donor: relative to p-nitrophenylsulfate designated as 100% activity, tyramine as sulfate acceptor. As to the method: (§1) At each stage of purification, the AST activity was assayed by incubating the AST with 0.1 M Tris (pH 8.0), 5.0 mM p-nitrophenylsulfate (as aryl sulfate donor) and 2.5 mM tyramine (as sulfate acceptor). The reaction was incubated at 37° C. and terminated by addition of 1 N NaOH. The amount of p-nitrophenol formed during the reaction was determined by an absorbance reading at 405 nm. One unit of enzyme is equal to 1 mmol of p-nitrophenol formed per minute per milligram protein. Other aryl sulfate donors and phenolic acceptors were used at similar concentrations. Peptide acceptors were typically used in the 250-500 mM range. Formation of sulfated phenols and peptides was also quantitated via HPLC, using a 30% acetonitrile/70% water mobile phase. A UV detector was used to monitor peptides at 280 nm. Other wavelengths were used with various sulfated phenolic products and substrates as appropriate.
The AST assay was performed as described in Example 2 using each of the sulfate donors listed in Table 4, with tyramine as the sulfate acceptor in each case. […] Activity is shown as a percentage relative to the activity obtained with p-nitrophenylsulfate, which is designated as 100% activity.

Assay [3] relates to Eubacterium A-44 arylsulfotransferase. The note with it: p-acetylphenylsulfate as donor baseline at 100% activity; Kobashi et al., 1987; cited from earlier work.
Assay [4] deals with Eubacterium nodatum arylsulfotransferase. The experiment in a line: Sulfation of CCK-8 by Eubacterium nodatum enzyme. In kind it is biochemical. The note with it: under conditions similar to the prior art.
Assay [5] concerns bacterial arylsulfotransferase. Particulars: prior bacterial arylsulfotransferase; Kobashi et al., 1987; cited from earlier work.
Assay [6] relates to AST of Clostridium innocuum 554 ATCC 55803 (Strain 554WT). The experiment in a line: Apparent Km from double reciprocal plots. In kind it is biochemical. As to the method:
as §1
In this AST assay, various concentrations of p-nitrophenylsulfate (as a sulfate donor) and of tyramine (as a sulfate acceptor) were plotted against the corresponding enzyme reaction rate in a double reciprocal plots (FIG. 4). AST activity was determined as described previously.

Assay [7] deals with Clostridium innocuum AST. Put plainly: Effectors of arylsulfotransferase activity. The class given is biochemical. Particulars: no effect / inhibitory / stimulatory. The text has this:
The above-described physical and biochemical properties of a Clostridium innocuum AST of the present invention are summarized in Table 3.

Setting [8] is: p-nitrophenylsulfate as sulfate donor.
[9] abbreviates: phenolic compounds, p-nitrophenylsulfate as sulfate donor, tyramine 100.

In the case of `CC(C)C[C@H](NC(=O)[C@H](Cc1ccccc1)NC(=O)CNC(=O)CNC(=O)[C@@H](N)Cc1ccc(O)cc1)C(=O)O` [leu enkephalin], the “Yield (%) of sulfated tyrosylpeptide” value in assay [1] (setting [8]) was determined as 92.5%. For the compound `CC[C@H](C)[C@H](NC(=O)[C@H](Cc1ccc(O)cc1)NC(=O)[C@@H](NC(=O)[C@H](CCCNC(=N)N)NC(=O)[C@@H](N)CC(=O)O)C(C)C)C(=O)N[C@@H](Cc1cnc[nH]1)C(=O)N1CCC[C@H]1C(=O)N[C@@H](Cc1ccccc1)C(=O)N[C@@H](Cc1cnc[nH]1)C(=O)N[C@@H](CC(C)C)C(=O)O` [angiotensin I] (H-DRVYIHPFHL-OH), the “Yield (%) of sulfated tyrosylpeptide” value in assay [1] (setting [8]) is given as 8.8%. For the compound `C[C@@H](NC(=O)[C@@H](N)Cc1ccc(O)cc1)C(=O)N[C@@H](Cc1ccccc1)C(=O)NCC(=O)N[C@@H](Cc1ccc(O)cc1)C(=O)N1CCC[C@H]1C(=O)N[C@@H](CO)C(N)=O` [dermorphin], the “Yield (%) of sulfated tyrosylpeptide” value in assay [1] (setting [8]) was 67.0%.

With `NC(=O)CC[C@@H]1NC(=O)[C@H](Cc2ccccc2)NC(=O)[C@H](Cc2ccc(O)cc2)NC(=O)[C@@H](N)CSSC[C@@H](C(=O)N2CCC[C@H]2C(=O)N[C@@H](CCCN=C(N)N)C(=O)NCC(N)=O)NC(=O)[C@H](CC(N)=O)NC1=O` [arg8 vasopressin], in assay [1] (setting [8]), the “Yield (%) of sulfated tyrosylpeptide” value is recorded as 35.8%. On to `CSCC[C@H](NC(=O)[C@H](CC(C)C)NC(=O)CNC(=O)[C@H](Cc1ccc(O)cc1)NC(=O)[C@H](Cc1ccccc1)NC(=O)[C@H](CCCCN)NC(=O)[C@H](CC(N)=O)NC(=O)[C@@H]1CCCN1C(=O)[C@H](CC(=O)O)NC(=O)[C@H](C)NC(=O)[C@@H]1CCC(=O)N1)C(N)=O` [physalaemin] (HELM PEPTIDE1{[Glp].A.D.P.N.K.F.Y.G.L.M.[am]}$$$$V2.0), for which the “Yield (%) of sulfated tyrosylpeptide” value in assay [1] (setting [8]) was 10.5%. Same read-out and setting: the figure for `N=C(N)NCCC[C@H](NC(=O)[C@@H](N)Cc1ccc(O)cc1)C(=O)O` [kyotorphin] is 16.8%.

As for `O=S(=O)(O)Oc1c[nH]c2ccccc12` [indoxyl sulfate], the “specific activity as donor substrate” value in assay [2] is listed as “about 27%”; in assay [3] it was “about 2.2%”. Moreover, the “Activity (%) as sulfate donor” value in assay [2] came out at 35%.

In the case of `Oc1ccccc1O` [catechol], the “Activity (%) as sulfate acceptor” value in assay [1] is recorded as 208. As to `Oc1cc(O)c2c(c1)OC(c1ccc(O)c(O)c1)C(O)C2` (stereo not shown) [catechin], the “Activity (%) as sulfate acceptor” value in assay [1] amounted to 150.

As for `Nc1ncnc2c1ncn2[C@@H]1O[C@H](COP(=O)(O)OS(=O)(=O)O)[C@@H](OP(=O)(O)O)[C@H]1O` [3'-phosphoadenosine-5'-phosphosulfate], the “utilization as a sulfate donor” value in assay [2] (in words) is recorded as “does not utilize”. Also, in assay [2], the “Activity (%) as sulfate donor” value was 0%. In the case of `CSCC[C@H](NC(=O)[C@H](Cc1ccc(O)cc1)NC(=O)[C@@H](N)CC(=O)O)C(=O)NCC(=O)N[C@@H](Cc1c[nH]c2ccccc12)C(=O)N[C@@H](CCSC)C(=O)N[C@@H](CC(=O)O)C(=O)N[C@@H](Cc1ccccc1)C(N)=O` [cholecystokinin8, cholecystokinin-8], the “yield of sulfation of CCK-8” value in assay [1] (Clostridium arylsulfotransferase, under conditions similar to the prior art) was no less than 60%; in assay [4] it was no less than 45%. In assay [1] (setting [8]), the “Yield (%) of sulfated tyrosylpeptide” value turned out to be 35.4%. The “highest reported yield of sulfated CCK-8” value in assay [5] is on record as roughly 31.3%. `C[C@]12CC[C@@H]3c4ccc(OS(=O)(=O)O)cc4CC[C@H]3[C@@H]1CCC2=O` [estrone sulfate]: in assay [2], the “specific activity as donor substrate” value is recorded as “about 17%” and the “Activity (%) as sulfate donor” value is 22%. In addition, the “specific activity as donor substrate” value in assay [3] is given as “about 3.4%”.

With `NCCc1ccc(O)cc1` [tyramine, 4-hydroxyphenethylamine], the “Activity (%) as sulfate acceptor” value in assay [1] (setting [9]) is 100%. The Km in assay [6] turned out to be 1630 µM. In the case of phenolphthalein sulfate, in assay [2], the “Activity (%) as sulfate donor” value worked out at 12%.

As to `Cc1cc(=O)oc2cc(OS(=O)(=O)O)ccc12` [4-methylumbelliferyl sulfate], in assay [2], the “Activity (%) as sulfate donor” value was 46%. With `COC(=O)c1ccc(O)cc1` [methyl p-hydroxybenzoate], the “Activity (%) as sulfate acceptor” value in assay [1] was determined as 65.

For the compound `CSCC[C@H](NC(=O)[C@H](Cc1c[nH]c2ccccc12)NC(=O)CNC(=O)[C@@H](NC(=O)[C@H](Cc1ccc(O)cc1)NC(=O)[C@H](CC(=O)O)NC(=O)[C@H](CCC(N)=O)NC(=O)[C@@H]1CCC(=O)N1)[C@@H](C)O)C(=O)N[C@@H](CC(=O)O)C(=O)N[C@@H](Cc1ccccc1)C(N)=O` (HELM PEPTIDE1{[Glp].Q.D.Y.T.G.W.M.D.F.[am]}$$$$V2.0), in assay [1] (setting [8]), the “Yield (%) of sulfated tyrosylpeptide” value turned out to be 4.8%. For the compound “hirudin (54-65) (GDFEEIPEEYLQ) [Gly-Asp-Phe-Glu-Glu-lle-Pro-Glu-Glu-Tyr-Leu-Gin]”, in assay [1] (setting [8]), the “Yield (%) of sulfated tyrosylpeptide” value came to 7.7%.

Consider `N[C@@H](Cc1ccc(O)cc1)C(=O)O` [tyrosine], for which the “Activity (%) as sulfate acceptor” value in assay [1] is reported as 13.

Consider `O=C(O)CN(CCN(CC(=O)O)CC(=O)O)CC(=O)O` [EDTA], for which, in assay [7], the “Effectors: effect on enzyme activity” value was “no effect”. As to `CC(C)C[C@H](NC(=O)[C@H](Cc1ccc(O)cc1)NC(=O)[C@@H](N)CCCNC(=N)N)C(=O)N1CCC[C@H]1C(=O)N[C@H](C(=O)O)[C@@H](C)O` [proctolin] (H-RYLPT-OH), the “Yield (%) of sulfated tyrosylpeptide” value in assay [1] (setting [8]) stood at 19.8%.

Take `Cc1cc(=O)oc2cc(O)ccc12` [4-methylumbelliferone]: the “Activity (%) as sulfate acceptor” value in assay [1] (setting [9]) was determined as 86%.

`Oc1ccccc1` [phenol]: the “Activity (%) as sulfate acceptor” value in assay [1] amounted to 194.

On to `O=[N+]([O-])c1ccc(O)c(OS(=O)(=O)O)c1` [p-nitrocatechol sulfate], for which the “Activity (%) as sulfate donor” value in assay [2] was 196%. Turning to `COC(=O)[C@@H](N)Cc1ccc(O)cc1` [tyrosine methyl ester], the “Activity (%) as sulfate acceptor” value in assay [1] (setting [9]) is 59%.
